Laboratory results as given in patent publication EP0251013A2, “Fluorine containing o-aminophenols” (BAYER AG, priority 1986, dated 1988).

Columns and labels:
Format in all cases: in vivo
Solanum = assay: Post-emergence test, greenhouse; settings: Solanum, 0,25 kg/ha, rated after three weeks vs untreated control
Source text: (§1) Lösungsmittel: 5 Gewichtsteile Aceton Emulgator: 1 Gewichtsteil Alkylarylpolyglykolether
(§2) Zur Herstellung einer zweckmäßigen Wirkstoffzubereitung vermischte man 1 Gewichtsteil Wirkstoff mit der angegebenen Menge Lösungsmittel, gab die angegebene Menge Emulgator zu und verdünnte das Konzentrat mit Wasser auf die gewünschte Konzentration.
(§3) Mit der Wirkstoffzubereitung spritzte man Testpflanzen, welche eine Höhe von 5 - 15 cm hatten so, daß die jeweils gewünschten Wirkstoffmengen pro Flächeneinheit ausgebracht wurden. Die Konzentration der Spritzbrühe wurde so gewählt, daß in 2000 1 Wasser/ha die jeweils gewünschten Wirkstoffmengen ausgebracht wurden. Nach drei Wochen wurde der Schädigungsgrad der Pflanzen bonitiert in % Schädigung im Vergleich zur Entwicklung der unbehandelten Kontrolle.
(§4) Es bedeuten: • 0 % = keine Wirkung (wie unbehandelte Kontrolle) • 100 % = totale Vernichtung

Sinapis = assay: Post-emergence test, greenhouse; settings: Sinapis, 0,25 kg/ha, rated after three weeks vs untreated control
Source text: as §1, §2, §3, §4

Chenopodium [1] = assay: Post-emergence test, greenhouse; settings: Chenopodium, 0,25 kg/ha, rated after three weeks vs untreated control
Source text: as §1, §2, §3, §4

Mais = assay: Post-emergence test, greenhouse; settings: Mais, 0,25 kg/ha, rated after three weeks vs untreated control
Source text: as §1, §2, §3, §4

Echinochloa = assay: Post-emergence test, greenhouse; settings: Echinochloa, 0,25 kg/ha, rated after three weeks vs untreated control
Source text: as §1, §2, §3, §4

Poa = assay: Post-emergence test, greenhouse; settings: Poa, 0,25 kg/ha, rated after three weeks vs untreated control
Source text: as §1, §2, §3, §4

Baumwolle [2] = assay: Post-emergence test, greenhouse; settings: Baumwolle, 0,25 kg/ha, sprayed on plants 5 - 15 cm high, rated after three weeks vs untreated control (0 % = no effect, 100 % = total destruction)
Source text: as §1, §2, §3, §4

Datura = assay: Pre-emergence test, greenhouse; settings: Datura, 1,0 kg/ha, rated after three weeks vs untreated control
Source text: as §1, §2
(§5) Samen der Testpflanzen wurden in normalen Boden ausgesät und nach 24 Stunden mit der Wirkstoffzubereitung begossen. Dabei wurde die Wassermenge pro Flächeneinheit zweckmäßigerweise konstant gehalten. Die Wirkstoffkonzentration in der Zubereitung spielte keine Rolle, entscheidend war nur die Aufwandmenge des Wirkstoffs pro Flächeneinheit. Nach drei Wochen wurde der Schädigungsgrad der Pflanzen bonitiert in % Schädigung im Vergleich zur Entwicklung der unbehandelten Kontrolle. Es bedeuten: • 0 % = keine Wirkung (wie unbehandelte Kontrolle) • 100 % = totale Vernichtung

Chenopodium [3] = assay: Pre-emergence test, greenhouse; settings: Chenopodium, 1,0 kg/ha, rated after three weeks vs untreated control
Source text: as §1, §2, §5

Weizen = assay: Pre-emergence test, greenhouse; settings: Weizen, 1,0 kg/ha, rated after three weeks vs untreated control
Source text: as §1, §2, §5

Matricaria = assay: Pre-emergence test, greenhouse; settings: Matricaria, 1,0 kg/ha, rated after three weeks vs untreated control
Source text: as §1, §2, §5

Cynodon = assay: Pre-emergence test, greenhouse; settings: Cynodon, 1,0 kg/ha, rated after three weeks vs untreated control
Source text: as §1, §2, §5

Stellaria = assay: Pre-emergence test, greenhouse; settings: Stellaria, 1,0 kg/ha, rated after three weeks vs untreated control
Source text: as §1, §2, §5

Portulak = assay: Pre-emergence test, greenhouse; settings: Portulak, 1,0 kg/ha, rated after three weeks vs untreated control
Source text: as §1, §2, §5

Baumwolle [4] = assay: Pre-emergence test, greenhouse; settings: Baumwolle, 1,0 kg/ha, rated after three weeks vs untreated control (0 % = no effect, 100 % = total destruction)
Source text: as §1, §2, §5

Measured: Schädigungsgrad der Pflanzen in % Schädigung

FC(Cl)(Cl)Sn1c(C(F)(F)F)nc2cc(C(F)(F)F)c(Cl)cc21 [Beispiel 13, 1-Dichlorfluormethylsulfenyl-2,5-bis(trifluormethyl)-6-chlorbenzimidazol]
50%: Mais
20%: Baumwolle [2]
0%: Weizen | Baumwolle [4]
80%: Echinochloa | Datura | Matricaria | Stellaria
100%: all other assays above
